pIC50: −log10 of the molar value. Read-outs that look alike come from different tables or passages of the source. Each block holds one compound with its values, some of them ahead of it.
Tests used:
[1] = tested on: Salmonella typhimurium TA98, TA102; experiment: Ames test for genotoxicity; settings: 8 conc., 1.5-5000 μg/plate; +/− S9 both; strains TA98, TA102
Description: The Ames test determines the ability of a compound to reverse an introduced mutation in two strains of Salmonella typhimurium (selected from TA98, TA100, TA15345, TA1537, and TA102). (See for example Maron, D. M. and Ames, B. N., Mutat. Res., 1983, 113, 173-215.) Compounds were tested at eight dose levels 1.5, 5, 15, 50, 150, 500, 1500, and 5000 μg/plate in both the presence and absence of S-9 microsomal fraction in two bacterial strains (TA98, TA102). After incubation at 37° the number of revertant colonies was compared with the number of spontaneous revertants on negative (vehicle) plates. Positive control plates containing a known mutagen active in each of the strains in the presence of S-9 extract (2-aminoanthracene at 1-5 ug/plate) were also run.

[2] = target: NMDA receptor (NR1 + NR2 subunits) (Rattus norvegicus, UniProt P35439+Q00960); experiment: Two electrode voltage clamp recording from Xenopus laevis oocytes (pH dependence of NMDA antagonism); assay type: cell-based; settings: Table 27; pH not stated; read-out: Rat IC50
Sequence of NMDA receptor (NR1 + NR2 subunits) (Q00960 27-1482, other chains not shown): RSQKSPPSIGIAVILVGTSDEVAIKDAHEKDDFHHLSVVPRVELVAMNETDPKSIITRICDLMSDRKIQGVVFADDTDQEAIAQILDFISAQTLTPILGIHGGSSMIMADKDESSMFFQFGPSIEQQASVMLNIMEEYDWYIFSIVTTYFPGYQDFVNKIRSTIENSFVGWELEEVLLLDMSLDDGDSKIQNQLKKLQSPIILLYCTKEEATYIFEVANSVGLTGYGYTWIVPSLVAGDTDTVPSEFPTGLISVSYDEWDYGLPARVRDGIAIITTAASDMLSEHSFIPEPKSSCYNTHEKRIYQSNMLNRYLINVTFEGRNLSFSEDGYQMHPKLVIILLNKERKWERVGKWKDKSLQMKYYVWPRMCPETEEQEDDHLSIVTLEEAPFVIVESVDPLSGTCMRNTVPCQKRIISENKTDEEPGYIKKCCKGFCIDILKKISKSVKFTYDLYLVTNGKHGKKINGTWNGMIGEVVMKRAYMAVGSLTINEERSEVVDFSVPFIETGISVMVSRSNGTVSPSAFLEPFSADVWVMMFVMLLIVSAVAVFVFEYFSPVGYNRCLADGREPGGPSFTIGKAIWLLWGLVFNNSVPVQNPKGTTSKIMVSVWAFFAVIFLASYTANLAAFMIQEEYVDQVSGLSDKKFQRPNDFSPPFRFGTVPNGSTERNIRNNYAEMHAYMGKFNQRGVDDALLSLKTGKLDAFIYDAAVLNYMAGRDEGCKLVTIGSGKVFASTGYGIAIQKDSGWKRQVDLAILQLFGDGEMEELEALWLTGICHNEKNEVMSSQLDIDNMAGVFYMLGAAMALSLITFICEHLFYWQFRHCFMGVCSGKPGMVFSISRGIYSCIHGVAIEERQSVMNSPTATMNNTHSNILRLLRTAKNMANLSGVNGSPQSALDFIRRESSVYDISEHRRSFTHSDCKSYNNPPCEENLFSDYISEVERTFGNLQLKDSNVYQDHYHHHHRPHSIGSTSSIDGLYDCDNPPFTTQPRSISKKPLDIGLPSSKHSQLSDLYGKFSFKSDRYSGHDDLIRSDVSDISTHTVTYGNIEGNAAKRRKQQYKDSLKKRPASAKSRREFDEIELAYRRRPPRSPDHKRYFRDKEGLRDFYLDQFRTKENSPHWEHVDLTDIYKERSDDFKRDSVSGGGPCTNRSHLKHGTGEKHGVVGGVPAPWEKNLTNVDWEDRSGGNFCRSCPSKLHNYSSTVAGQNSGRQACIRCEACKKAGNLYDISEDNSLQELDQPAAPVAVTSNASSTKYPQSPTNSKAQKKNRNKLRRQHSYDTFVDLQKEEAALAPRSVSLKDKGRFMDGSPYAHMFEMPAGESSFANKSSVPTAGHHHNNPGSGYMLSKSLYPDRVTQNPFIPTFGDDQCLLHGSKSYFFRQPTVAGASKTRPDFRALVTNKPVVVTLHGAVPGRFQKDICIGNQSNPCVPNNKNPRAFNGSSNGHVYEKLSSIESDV
How it was run: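 Oocytes expressing rat NR1/NR2 were held at −40 mV at 23 °C, 2–7 days after injection, in Ba²⁺ saline with pH adjusted and 10 µM EDTA. Compounds at 4–8 concentrations were co-applied with 50 µM glutamate and 30 µM glycine. Percent of the initial response was leak-corrected, pooled over 3–6 frogs and fitted with a Hill equation (minimum ≥0) to give IC50.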

[3] = tested on: CD1 mice; experiment: Forced swim model (depression result); assay type: in vivo; settings: i.p.
Description: CD1 mice were adminstered a compounds shown in Table 11, desipramine, Ro 25-6981 or a control vehicle and subjected to a forced swim test. All compounds were administered as intraperitoneal injections. Animals were placed into a beaker (15 cm diameter) of water held at 25° C. with a depth of 15 cm 30 min after compound administration. Behavior was videotaped for 6 minutes from the side of the beaker and scored subsequently for struggling behavior. Results were analyzed by one-way ANOVA and post-hoc Bonferroni tests. Total immobility time refers to the time that the animal spends floating or engaged in minimal activity to keep afloat for at least 3 seconds. Subtle movements of feet, tail or head required to maintain the eyes, ears, and nose above the surface of the water were excluded as immobility. The video-tapes were scored by investigators unfamiliar with the treatments of the mice.
For the data in FIG. 1, test compounds were tested at a dose of 10 mg/ kg. Desipramine was tested at a dose of 20 mg/kg. Ro 25-6981 was tested at a dose of 5 mg/kg. Number of CD1 mice tested per groups was 8-10. ANOVA: F(11,98)=3.638, p<0.01. *=p<0.05 compared to vehicle. +=p<0.05 compared to desipramine.
For the data in FIG. 2, compounds NP10075 and NP10076 were tested at doses of 5 mg/kg, 7.5 mg/kg and 10 mg/kg; desipramine was tested at a dose of 20 mg/kg; and Ro 25-6981 was tested at a dose of 5 mg/kg. Number of CD1 mice tested per group was 8-10. *=p<0.05, **=p<0.01 ANOVA, post-hoc Bonferroni from control.

[4] = Plasma and brain exposure assessment; assay type: in vivo, Mice; settings: mouse, ip; for concentration at 30 min: calculated from the brain:plasma ratio determined by LC-MS/MS
Description: Mice were administered a dose of test compound (10 mg/kg by i.p.) and blood and brain tissue samples collected at the indicated times post drug administration (n=3-5). Blood samples were collected in K-EDTA tubes and centrifuged for ten minutes immediately after collection, and the plasma was stored at −80° C. until analysis. Brains were immediately removed from the skull and the meninges and cerebellum removed, rinsed with ice-cold PBS, weighed and then homogenized at 4° C. in 2-3 volumes of 50 mM potassium phosphate buffer (pH 7.4) and stored at −80° C. until analysis. Plasma and brain homogenates were extracted by the addition of 5 volumes of cold acetonitrile, mixed well by vortexing and centrifuged at 4000 rpm for 15 minutes. The supernatant fractions were analyzed by LC-MS/MS operating in multiple reaction monitoring mode (MRM) and analyzed for the parent compound to determine the plasma or brain concentration. Internal standards were added to calibrate each sample. An eight point standard curve was prepared similarly in naïve plasma and brain for each compound of interest. Based on occupancy studies of other NR2B antagonists in rodents (CP-101,606, Ro25-6981, and Merck20j), plus plasma levels achieved in Preskorn et al., brain exposures for the test compounds were consistent with “anticipated levels” required for efficacy.

[5] = tested on: mice; experiment: Open field activity test; assay type: in vivo; settings: 10 mg/kg, intraperitoneal
Description: Spontaneous activity was evaluated in an automated Omnitech Digiscan apparatus (AccuScan Instruments, Columbus, Ohio). Animals were given vehicle, imipramine, or a dose of a test compound. All compounds were administered as intraperitoneal injections. Activity was summated at 5 minute intervals over the 90 min period of testing. At 60 minutes, the mice were injected with 10 mg/kg NP10075, 10 mg/kg NP10076 or a vehicle. Locomotion was measured in terms of the total distance traveled (horizontal activity). Results were analyzed by one-way ANOVA and post-hoc Bonferroni tests.

[6] = Brain exposure (brain:plasma ratio, Table 24); assay type: in vivo, Rats; settings: for Kp at 15 min: 15 m
Description: Animals were fasted overnight prior to dose administration and food returned to the animals two hours after dosing. Following IV dosing, blood samples (ca 200 μL) were collected into separate tubes containing anticoagulant (K-EDTA) via the orbital plexus at various times post administration. Plasma samples were prepared immediately after collection by centrifugation for ten minutes using a tabletop centrifuge, and stored at −80° C. Brain tissue was weighed, homogenized on ice in 50 mM phosphate buffer (2 ml per brain) and the homogenate stored at −80° C. Plasma and brain homogenate samples were extracted by the addition of 5 volumes of cold acetonitrile, mixed well by vortexing and centrifuged at 4000 rpm for 15 minutes. The supernatant fractions were analyzed by LC-MS/MS operating in multiple reaction monitoring mode (MRM). The amount of parent compound in each sample was calculated by comparing the response of the analyte in the sample to that of a standard curve.

[7] = tested on: MDR1-MDCK cell monolayers that express the multidrug transporter P-gp; experiment: In vitro cell permeability assay to predict brain penetration potential; assay type: in vitro ADME; design: key: High: when Papp A−B≧3.0×10−6 cm/s, and efflux<3.0; Moderate: when Papp A−B≧3.0×10−6 cm/s, and 10>efflux≧3.0; Low: when either Papp A−B≧3.0×10−6 cm/s, and efflux≧10, or when Papp A−B<3.0×10−6 cm/s; settings: 5 μM, pH 7.4, 2 hr, from Papp A-B and efflux ratio
Description: Penetration Classification (Table 24) using the in vitro cell permeability assay to predict bran penetration potential: Transwell® wells containing MDR1-MDCK cell monolayers that express the multidrug transporter P-gp were used for measuring the percent recovery of compound after dosing both sides of a cell monolayer with the test article. Monolayers were grown for 7-11 days at which time 5 μM of the test article was made by dilution from DMSO stocks into a Hank's balanced salt solution (pH 7.4), final DMSO not greater than 1%, and added to: a) the apical side for A-B permeability (apical to basal) assessment, or separately b) the basal side for the B-A permeability (basal to apical) assessment, all at pH 7.4. After a 2 hr incubation (37° C.) both the apical and the basal compartments were sampled and the amount of test article present determined by generic LC-MS/MS methods against a ≧4 point calibration curve. Experiments were done in duplicate. Apparent permeability (Papp units are reported×10−6 cm/s) are determined for the A−B and the B−A directions as well as the Efflux ratio (PappB−A/Papp A−B). The blood-brain barrier penetration potential is classified as follows: “High” when Papp A−B≧3.0×10−6 cm/s, and efflux<3.0; “Moderate” when Papp A−B≧3.0×10−6 cm/s, and 10>efflux≧3.0; and “Low” when either Papp A−B≧3.0×10−6 cm/s, and efflux≧10, or when Papp A−B<3.0×10−6 cm/s.

[8] = plasma (free, unbound), mice 10 mg/kg i.p., 30 minute, based on % free fraction measured in protein binding study, read-out: Free Plasma
[9] = plasma (free, unbound), mice 10 mg/kg i.p., 30 minute, based on % free fraction, read-out: Free Plasma
[10] = plasma, mice dosed 10 mg/kg, i.p., 30 minute time point, LC-MS/MS, read-out: Plasma

SMILES: CCCCN(CCc1ccc(Cl)c(Cl)c1)CC(O)COc1ccc(NS(C)(=O)=O)cc1 (stereo not drawn) [Compound 93-31]
Genotoxicity (Ames) Result [1]: No positive

SMILES: O=c1[nH]c2ccc(OC[C@@H](O)CN3CCN(c4ccc(Cl)cc4)CC3)cc2o1 [NP10056]
Genotoxicity (Ames) Result [1]: No positive

SMILES: NC(=O)Nc1ccc(OC[C@@H](O)CN2CCN(c3ccc(Cl)cc3)CC2)cc1 [NP10075]
mouse open field activity (total distance traveled) [5]: Neither NP10075 or NP10076 altered mouse open field activity | pIC50 [2]: 6.97 | Genotoxicity (Ames) Result [1]: No positive | Depression Result [3]: active | concentration at 30 min ([4]; mice 10 mg/kg i.p.): 130 nM | concentration at 30 minute [4, 8]: 220 ng/mL | concentration at 30 minute [4, 9]: 542 nM | concentration at 30 minute [4, 10]: 3140 ng/mL

SMILES: O=c1[nH]c2ccc(OC[C@@H](O)CN3CCN(c4ccc(Cl)cc4)CC3)cc2[nH]1 [NP10122]
Genotoxicity (Ames) Result [1]: No positive

SMILES: Nc1ccc(OC[C@@H](O)CN2CCN(c3ccc(Cl)c(Cl)c3)C2=O)cc1 [NP10226]
Genotoxicity (Ames) Result [1]: No positive

SMILES: Nc1ccc(OC[C@@H](O)CN2CCN(c3ccc(Cl)cc3)CC2)cc1 [NP10231]
Genotoxicity (Ames) Result [1]: No positive

SMILES: NC(=O)Nc1ccc(OC[C@@H](O)CN2CCN(c3ccc(Cl)cc3)C2=O)cc1 [drawing 805]
RATIO: Brain:plasma (Direct) ([6]; 1 MPK i.v.): Below Detection limit (~0) | BBB Pene Classification [7]: Low

SMILES: O=C(COc1ccc2[nH]c(=O)oc2c1)N1CCN(c2ccc(Cl)c(Cl)c2)CC1 [drawing 806]
Kp at 15 min ([6]; rat, brain and plasma, ip, 10 mg/kg, 10 MPK i.p., read-out: RATIO: Brain:plasma (Direct)): 0.25 | Kp at 30 min ([6]; rat, brain and plasma, ip, 10 mg/kg, 10 MPK i.p., 30 m, read-out: RATIO: Brain:plasma (Direct)): 0.49 | Kp at 1 h ([6]; rat, brain and plasma, ip, 10 mg/kg, 10 MPK i.p., 1 hr, read-out: RATIO: Brain:plasma (Direct)): 0.3 | Kp at 2 h ([6]; rat, brain and plasma, ip, 10 mg/kg, 10 MPK i.p., 2 hr, read-out: RATIO: Brain:plasma (Direct)): 0.36 | Kp ([6]; rat, brain and plasma, ip, 10 mg/kg, 10 MPK i.p., avg, read-out: RATIO: Brain:plasma (Direct)): 0.33 | BBB Pene Classification [7]: Moderate (when Papp A−B≧3.0×10−6 cm/s, and 10>efflux≧3.0)

SMILES: O=C(COc1ccc2[nH]c(=O)[nH]c2c1)N1CCN(c2ccc(Cl)c(Cl)c2)CC1 [drawing 807]
Kp at 15 min ([6]; rat, brain and plasma, iv, 1 mg/kg i.v., read-out: RATIO: Brain:plasma (Direct)): 0.04 | Kp at 30 min ([6]; rat, brain and plasma, iv, 1 mg/kg i.v., 30 m, read-out: RATIO: Brain:plasma (Direct)): 0.06 | Kp at 1 h ([6]; rat, brain and plasma, iv, 1 mg/kg i.v., 1 hr, read-out: RATIO: Brain:plasma (Direct)): 0.07 | Kp at 3 h ([6]; rat, brain and plasma, iv, 1 mg/kg i.v., 3 hr, read-out: RATIO: Brain:plasma (Direct)): 0.1 | Kp ([6]; rat, brain and plasma, iv, 1 mg/kg i.v., avg., read-out: RATIO: Brain:plasma (Direct)): 0.07 | BBB Pene Classification [7]: Moderate (when Papp A−B≧3.0×10−6 cm/s, and 10>efflux≧3.0)

SMILES: Oc1ccc(OC[C@@H](O)CSc2nc3cc(Cl)c(Cl)cc3[nH]2)cc1 [drawing 808]
RATIO: Brain:plasma (Direct) ([6]; 3 MPK i.v., 2 hr): BLQ | Kp at 30 min ([6]; rat, brain and plasma, iv, 3 mg/kg, 3 MPK i.v., 30 m, read-out: RATIO: Brain:plasma (Direct)): 0.15 | Kp at 1 h ([6]; rat, brain and plasma, iv, 3 mg/kg, 3 MPK i.v., 1 hr, read-out: RATIO: Brain:plasma (Direct)): 0.35 | Kp ([6]; rat, brain and plasma, iv, 3 mg/kg, 3 MPK i.v., avg, read-out: RATIO: Brain:plasma (Direct)): 0.25 | BBB Pene Classification [7]: High (when Papp A−B≧3.0×10−6 cm/s, and efflux<3.0)

SMILES: O=c1[nH]c2ccc(OC[C@@H](O)CSc3nc4cc(Cl)c(Cl)cc4[nH]3)cc2o1 [drawing 809]
RATIO: Brain:plasma (Direct) ([6]; 3 MPK i.v., 30 m): BLQ (avg); BLQ (30 m), BLQ (1 hr), | RATIO: Brain:plasma (Direct) ([6]; 3 MPK i.v., 1 hr): BLQ (avg); BLQ (30 m), BLQ (1 hr), | RATIO: Brain:plasma (Direct) ([6]; 3 MPK i.v., avg): BLQ (avg); BLQ (30 m), BLQ (1 hr), | BBB Pene Classification [7]: Moderate (when Papp A−B≧3.0×10−6 cm/s, and 10>efflux≧3.0)

The next lines start with results.

pIC50 [2]: 7.22 | concentration at 30 min ([4]; mice 10 mg/kg i.p.): 48 nM | concentration at 30 minute [4, 8]: 61 ng/mL | concentration at 30 minute [4, 9]: 145 nM | concentration at 30 minute [4, 10]: 679 ng/mL
SMILES: O=C(COc1ccc2[nH]c(=O)oc2c1)N1CCN(c2ccc(Cl)c(Cl)c2)CC1 [NP10068]
Depression Result [3]: active

pIC50 [2]: 7.14 | concentration at 30 min ([4]; mice 10 mg/kg i.p.): 64 nM | concentration at 30 minute [4, 8]: 34 ng/mL | concentration at 30 minute [4, 9]: 94 nM | concentration at 30 minute [4, 10]: 377 ng/mL
SMILES: O=C1N(C[C@H](O)COc2ccc(O)cc2)CCN1c1ccc(Cl)cc1 [NP10076]
Depression Result [3]: active

Source: patent publication US20110160223A1, “NMDA Receptor Antagonists for the Treatment of Neuropsychiatric Disorders” (priority 2008, published 2011)
